Experimental data taken from patent US7514438B2, “Melanin concentrating hormone receptor antagonist” (Amgen, Inc., priority 2003, dated 2009).
Where two headings read alike, the source gives them in different places.

How the values were obtained:
[1] = biological target: T1, human MCH 1 receptor (hMCH1R) (Homo sapiens, UniProt Q99705); test: 125I-MCH ligand binding assay, hMCH; conditions: HEK 293 membranes, 0.2 nM 125I native-MCH; 100 μM or less list; read-out: IC50 in the hMCH binding assay
T1 construct: expressed in transfected cells; host or cells: HEK 293 (membranes)
T1 sequence (Q99705 whole entry): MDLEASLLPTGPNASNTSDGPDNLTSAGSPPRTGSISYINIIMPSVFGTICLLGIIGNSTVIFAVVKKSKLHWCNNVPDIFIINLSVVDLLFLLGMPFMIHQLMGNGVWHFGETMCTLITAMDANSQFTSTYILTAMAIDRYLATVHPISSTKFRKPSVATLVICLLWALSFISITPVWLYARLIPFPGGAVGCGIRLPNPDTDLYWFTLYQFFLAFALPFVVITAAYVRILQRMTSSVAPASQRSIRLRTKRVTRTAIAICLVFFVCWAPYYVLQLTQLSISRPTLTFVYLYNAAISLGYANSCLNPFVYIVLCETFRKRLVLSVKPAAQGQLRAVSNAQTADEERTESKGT
Method: (§1) Human embryonic kidney cells (293 total) expressing either human, rat, or mouse MCH receptor were harvested from 150 mm culture dishes using PBS. Spinning at 1500 rpm for 2 minutes initially pelleted cells. The resulting pellet was then homogenized in 15 mL ice cold sucrose buffer (25 mM HEPES, 0.3 M sucrose, pH 7.4) with a motorized, glass fitted, Teflon® homogenizer. The homogenate was centrifuged at 48,000×g at 4° C. for 10 minutes, resuspended in 15 mL assay buffer (25 mM HEPES, 10 mM mgCl2, 0.2% BSA, 0.1 mg/mL STI, 0.1 mg/mL Pefabloc®, 1 μM Phosphoramidon, pH 7.4) with a Tissue-Tearor® (Biospec Products) and centrifuged again at 48,000×g for 10 minutes. The pellet was homogenized for a third time in 15 mL assay buffer using the Tissue-Tearor® and again centrifuged at 48,000×g for 10 minutes. The resulting pellet was resuspended in assay buffer at a wet weight concentration of 10-20 mg/mL.
(§2) Binding assays were determined as described below using mouse, rat or human MCH 1 receptors (mMCH1R, rMCH1R, and hMCH1R, respectively) expressed in HEK 293; IC50 values were calculated.
(§3) Binding assays were performed in 96-well U-bottom plates. Membranes (100 μg tissue) were incubated at 30° C. for 90 minutes in assay buffer with various peptides in the presence of 0.2 nM ^125I native-MCH (Perkin-Elmer Life Sciences, Boston, Mass.) in 100 μL total volume. Non-specific binding was assessed in the presence of 1 μM cold native-MCH. The reaction was terminated by rapid filtration through Unfilter-96 GF/C glass fiber filter plates (FilterMate® 196 Harvester, Packard Instrument Co., Meriden, Conn.) pre-soaked in PBS/0.5% BSA, followed by three washes with 300 μL ice-cold water. Bound radioactivity was determined using a TopCount® microplate scintillation and luminescence counter (Packard Instrument Co., Meriden, Conn.). Nonlinear regression analyses of drug concentration curves were performed using GraphPad Prism® (GraphPad Software, Inc., San Diego, Calif.).

[2] = biological target: T2, rat MCH 1 receptor (rMCH1R) (Rattus norvegicus, UniProt P97639); test: 125I-MCH ligand binding assay, rMCH; conditions: HEK 293 membranes, 0.2 nM 125I native-MCH, read-out: IC50 in the rMCH binding assay
T2 construct: expressed in transfected cells; host or cells: HEK 293 (membranes)
T2 sequence (P97639 whole entry): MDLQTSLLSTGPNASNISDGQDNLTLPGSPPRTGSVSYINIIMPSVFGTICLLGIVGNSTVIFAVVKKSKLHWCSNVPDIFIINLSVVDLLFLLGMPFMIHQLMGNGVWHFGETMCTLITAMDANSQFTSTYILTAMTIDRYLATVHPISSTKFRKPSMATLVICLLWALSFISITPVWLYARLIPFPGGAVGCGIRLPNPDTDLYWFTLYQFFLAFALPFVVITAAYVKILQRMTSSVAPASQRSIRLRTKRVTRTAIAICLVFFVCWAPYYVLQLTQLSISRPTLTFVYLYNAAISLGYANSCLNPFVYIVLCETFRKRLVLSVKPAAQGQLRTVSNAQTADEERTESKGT
Method: as §1, §2, §3

IC50 [1] | IC50 ([2]; 100 μM or less list) | IC50 ([2]; 100 nM or less list) | Structure (SMILES)
≤ 100 µM |  |  | Cc1cccc(C)c1-n1nnnc1[C@H](c1ccccc1OCc1ccccc1)N1CCN(C/C=C/c2ccccc2)CC1 (racemic) [Compound 66, 1-{(2-benzyloxyphenyl)-[1-(2,6-dimethylphenyl)-1H-tetrazol-5-yl]methyl}-4-(3-phenylallyl)piperazine]
≤ 100 µM | ≤ 100 µM |  | Cc1ccc(Oc2cccc([C@@H](c3nnnn3-c3c(C)cccc3C)N3CCN(C/C=C/c4ccccc4)CC3)c2)cc1 (racemic) [Compound 73, 1-[[1-(2,6-dimethylphenyl)-1H-tetrazol-5-yl]-(3-p-tolyloxyphenyl)methyl]-4-(3-phenylallyl)piperazine]
≤ 100 µM | ≤ 100 µM |  | C(=C\c1ccccc1)/CN1CCN([C@@H](c2ccccc2)c2nnnn2CCc2ccccc2)CC1 (racemic) [Compound 35, 1-[(1-phenethyl-1H-tetrazol-5-yl)phenylmethyl]-4-(3-phenylallyl) piperazine]
≤ 100 µM | ≤ 100 µM |  | CC(C)n1nnnc1[C@H](c1ccccc1)N1CCN(C/C=C/c2ccccc2)CC1 (racemic) [Compound 19, 1-[(1-isopropyl-1H-tetrazol-5-yl)phenylmethyl]-4-(3-phenylallyl)piperazine]
 | ≤ 100 µM |  | Cc1cccc(C)c1-n1nnnc1[C@H](c1ccc(F)c(F)c1)N1CCN(C/C=C/c2ccccc2)CC1 (racemic) [Compound 124, 1-{(3,4-difluoraphenyl)-[1-(2,6-dimethylphenyl)-1H-tetrazol-5-yl]methyl}-4-(3-phenylallyl)piperazine]
 | ≤ 100 µM |  | CCc1ccc([C@@H](c2nnnn2-c2c(C)cccc2C)N2CCN(C/C=C/c3ccccc3)CC2)cc1 (racemic) [Compound 127, 1-[[1-(2,6-dimethylphenyl)-1H-tetrazol-5-yl]-(4-ethylphenyl)methyl]-4-(3-phenylallyl)piperazine]
 | ≤ 100 µM |  | Cc1cccc(C)c1-n1nnnc1[C@H](c1ccccn1)N1CCN(C/C=C/c2ccccc2)CC1 (racemic) [Compound 75, 1-{[1-(2,6-dimethylphenyl)-1H-tetrazol-5-yl]pyridin-2-ylmethyl}-4-(3-phenylallyl)piperazine]
≤ 100 µM |  |  | COc1ccccc1[C@@H](c1nnnn1-c1c(C)cccc1C)N1CCN(C/C=C/c2ccccc2)CC1 (racemic) [Compound 67, 1-[[1-(2,6-dimethylphenyl)-1H-tetrazol-5-yl]-(2-methoxyphenyl)methyl]-4-(3-phenylallyl)piperazine]
 | ≤ 100 µM |  | COc1ccc([C@@H](c2nnnn2-c2c(C)cccc2C)N2CCN(C/C=C/c3ccccc3)CC2)cc1 (racemic) [Compound 122, 1-[[1-(2,6-dimethylphenyl)-1H-tetrazol-5-yl]-(4-methoxyphenyl)methyl]-4-(3-phenylallyl)piperazine]
 | ≤ 100 µM |  | CSc1ccc([C@@H](c2nnnn2-c2c(C)cccc2C)N2CCN(C/C=C/c3ccccc3)CC2)cc1 (racemic) [Compound 126, 1-[[1-(2,6-dimethylphenyl)-1H-tetrazol-5-yl]-(4-methylsulfanylphenyl)methyl]-4-(3-phenylallyl)piperazine]
 | ≤ 100 µM |  | Cc1cccc(C)c1-n1nnnc1C1(N2CCN(C/C=C/c3ccccc3)CC2)CCN(C)CC1 [Compound 99, 1-{4-[1-(2,6-dimethylphenyl)-1H-tetrazol-5-yl]-1-methylpiperidin-4-yl}-4-(3-phenylallyl)piperazine]
 | ≤ 100 µM | ≤ 0.1 µM | COc1cc([C@@H](c2nnnn2-c2c(C)cccc2C)N2CCN(C/C=C/c3ccccc3)CC2)ccc1OCc1ccccc1 (racemic) [Compound 129, 1-{(4-benzyloxy-3-methoxyphenyl)-[1-(2,6-dimethylphenyl)-1H-tetrazol-5-yl]methyl}-4-(3-phenylallyl)piperazine]
≤ 100 µM |  |  | C(=C\c1ccccc1)/CN1CCN([C@@H](c2ccccc2)c2nnnn2CCCN2CCOCC2)CC1 (racemic) [Compound 42]
 | ≤ 100 µM | ≤ 0.1 µM | CCOc1ccc([C@@H](c2nnnn2-c2c(C)cccc2C)N2CCN(C/C=C/c3ccccc3)CC2)cc1 (racemic) [Compound 136, 1-[[1-(2,6-dimethylphenyl)-1H-tetrazol-5-yl]-(4-ethoxyphenyl)methyl]-4-(3-phenylallyl)piperazine]

More lines, now with the values behind:

Structure (SMILES) | IC50 [1] | IC50 ([2]; 100 μM or less list) | IC50 ([2]; 100 nM or less list)
COC(=O)C(Cc1ccccc1)n1nnnc1[C@H](c1ccccc1)N1CCN(C/C=C/c2ccccc2)CC1 (stereo in doubt) [Compound 26, 3-phenyl-2-(5-{phenyl-[4-(3-phenylallyl)piperazin-1-yl]methyl}tetrazol-1-yl)propionic acid methyl ester] | ≤ 100 µM | ≤ 100 µM | 
CC(C)(C)CC(C)(C)n1nnnc1[C@H](c1ccccc1)N1CCN(C/C=C/c2ccccc2)CC1 (racemic) [Compound 22, 1-(3-phenylallyl)-4-{phenyl-[1-(1,1,3,3-tetramethylbutyl)-1H-tetrazol-5-yl]methyl}piperazine] | ≤ 100 µM | ≤ 100 µM | 
Clc1ccc(Cn2nnnc2[C@H](c2ccccc2)N2CCN(C/C=C/c3ccccc3)CC2)cc1Cl (racemic) [Compound 30, 1-{[1-(3,4-dichlorobenzyl)-1H-tetrazol-5-yl]phenylmethyl}-4-(3-phenylallyl)piperazine] | ≤ 100 µM | ≤ 100 µM | 
Cc1cccc(C)c1-n1nnnc1[C@H](c1ccc(F)cc1)N1CCN(C/C=C/c2ccccc2)CC1 (racemic) [Compound 58, 1-[[1-(2,6-dimethylphenyl)-1H-tetrazol-5-yl]-(4-fluorophenyl)methyl]-4-(3-phenylallyl)piperazine] | ≤ 100 µM | ≤ 100 µM | 
COC(=O)Cn1nnnc1[C@H](c1ccccc1)N1CCN(C/C=C/c2ccccc2)CC1 (racemic) [Compound 16, (5-{phenyl-[4-(3-phenylallyl)piperazin-1-yl]methyl}tetrazol-1-yl)acetic acid methyl ester] | ≤ 100 µM |  | 
Cc1cccc(C)c1-n1nnnc1[C@H](COCCc1ccccc1)N1CCN(C/C=C/c2ccccc2)CC1 (racemic) [Compound 85, 1-{1-[1-(2,6-dimethylphenyl)-1H-tetrazol-5-yl]-2-phenethyloxyethyl}-4-(3-phenylallyl)piperazine] | ≤ 100 µM |  | 
CCCCn1nnnc1[C@H](c1ccccc1)N1CCN(C/C=C/c2ccccc2)CC1 (racemic) [Compound 17, 1-[(1-butyl-1H-tetrazol-5-yl)phenylmethyl]-4-(3-phenylallyl)piperazine] | ≤ 100 µM |  | 
CC(=O)Nc1ccc([C@@H](c2nnnn2-c2c(C)cccc2C)N2CCN(C/C=C/c3ccccc3)CC2)cc1 (racemic) [Compound 131, n-(4-{[1-(2,6-dimethylphenyl)-1H-tetrazol-5-yl]-[4-(3-phenylallyl)piperazin-1-yl]methyl}phenyl)acetamide] |  | ≤ 100 µM | 
Cc1cccc(C)c1-n1nnnc1C1(N2CCN(C/C=C/c3ccccc3)CC2)CCN(Cc2ccccc2)CC1 [Compound 91, 1-{1-benzyl-4-[1-(2,6-dimethylphenyl)-1H-tetrazol-5-yl]piperidin-4-yl}-4-(3-phenylallyl)piperazine] | ≤ 100 µM |  | 
Cc1cccc(C)c1-n1nnnc1[C@H](c1cc(Cl)cc(Cl)c1)N1CCN(C/C=C/c2ccccc2)CC1 (racemic) [Compound 137, 1-{(3,5-dichlorophenyl)-[1-(2,6-dimethylphenyl)-1H-tetrazol-5-yl]methyl}-4-(3-phenylallyl)piperazine] |  | ≤ 100 µM | ≤ 0.1 µM
Cc1cccc(C)c1-n1nnnc1[C@H](c1ccc(Cl)cc1)N1CCN(C/C=C/c2ccccc2)CC1 [Compound 118, 1-{(4-chiorophenyl)-[1-(2,6-dimethylphenyl)-1H-tetrazol-5-yl]methyl}-4-(3-phenylallyl)piperazine] |  | ≤ 100 µM | 
Cc1cccc(C)c1-n1nnnc1[C@H](c1ccc(CC(C)C)cc1)N1CCN(C/C=C/c2ccccc2)CC1 (racemic) [Compound 130, 1-[[1-(2,6-dimethylphenyl)-1H-tetrazol-5-yl]-(4-isobutylphenyl)methyl]-4-(3-phenylallyl)piperazine] |  | ≤ 100 µM | 
Cc1cccc(C)c1-n1nnnc1[C@H](c1ccc(C(C)C)cc1)N1CCN(C/C=C/c2ccccc2)CC1 (racemic) [Compound 125, 1-[[1-(2,6-dimethylphenyl)-1H-tetrazol-5-yl]-(4-isopropylphenyl)methyl}-4-(3-phenylallyl)piperazine] |  | ≤ 100 µM | 
